“Also recorded” adds a separate entry of the source. Where a SMILES comes first, the peptide text is derived from it.
Tests used:
Type in all cases: physicochemical
[1] = Reversed-phase HPLC retention time as measure of lipophilicity; conditions: 15-min gradient from 5% MeCN/H2O to 95% MeCN/H2O with 0.1% formic acid, longer time = more lipophilic
Excerpt: Reversed‐phase HPLC retention times have proven to be a useful metric in determining the permeability of peptide macrocycles, as longer retention times typically equate to lower aqueous solubility, lower polarity, and increased lipophilicity.^[ [34], [35], [36], [37] ^] We were keen to use these HPLC retention times as a tool to assess the modulation of lipophilicity of the pseudo‐ring‐containing macrocycles. At the same time, we were interested in collecting solubility measurements for each macrocycle in both organic solvents (DMSO) as well as in water by visually determining each macrocycle's solubility. Our analysis began with the proteinogenic peptides 8 and 9 (Figure 6a). From the NMR studies, we recognized that these peptides had extremely poor solubility in d6 ‐DMSO (Figure 6c). […] HPLC analysis of these peptides confirmed that proteinogenic sequences correspond to extremely polar peptides. On a 15‐min HPLC gradient (from 5% MeCN/H2O to 95% MeCN/H2O with 0.1% formic acid), macrocycles 8 and 9 had HPLC retention times of 5.3 min and 4.8 min, respectively. Both 8 and 9 contain similar hydrogen bonding patterns, which is reflected in their similar hydrophilicities and HPLC retention times. Similar results were obtained with peptides 10 and 11 (Figure 6a). […]

[2] = Solubility in DMSO / organic solvents, determined visually; conditions: room temperature, concentration of 10 mg/mL (ca. 10 mg/mL for NMR)
Excerpt: We considered building blocks 1–3 as Fmoc‐protected pseudo‐ring building blocks that could be implemented into the Fmoc SPPS approach. The building block 1 was readily prepared from 3‐methyl SA (see Supporting Information). […] The building block 3 was made from commercially available 7‐carboxyindole over seven steps. This procedure was scalable and required no chromatographic purifications (see Supporting Information). With 1 and 3 in hand, we turned our attention towards their application in SPPS. […] Through cyclization of the linear pentafluorophenol (PFP) ester at high dilution in DMF with DIPEA, cyclic peptides 4 (25% overall yield) and 5 (28% overall yield) were obtained from building block 1. The cyclic peptides 6 (17% overall yield) and 7 (21% overall yield) were prepared from building block 3 (Figure 3a,b). At the same time, we synthesized cyclic peptide controls devoid of the pseudo‐ring core through a conventional Fmoc SPPS strategy (Figure 3c) with a Gly‐Gly in place of the pseudo‐ring scaffold. Similarly, we prepared peptides 10 and 11, which represent depeptidized homodetic sequences that contain a backbone‐embedded arene that lacks the X─H pseudo‐ring hydrogen bond donor (Figure 3c). To draw further comparison between pseudo‐ring‐containing and regular heterocycle‐containing peptides, we attempted to synthesize the indole‐containing analogues of peptides 6 and 7 (see Supporting Information). […] During the preparation of cyclic peptides 4–11, we noticed that macrocycles devoid of a pseudo‐ring were frustratingly insoluble in all organic solvents as well as in water. As result, these peptides (8–11) were purified by hot trituration in methanol/water. The solubilities/lipophilicities of peptides 4–11 will be discussed later in this paper. […]
Reversed‐phase HPLC retention times have proven to be a useful metric in determining the permeability of peptide macrocycles, as longer retention times typically equate to lower aqueous solubility, lower polarity, and increased lipophilicity.^[ [34], [35], [36], [37] ^] We were keen to use these HPLC retention times as a tool to assess the modulation of lipophilicity of the pseudo‐ring‐containing macrocycles. At the same time, we were interested in collecting solubility measurements for each macrocycle in both organic solvents (DMSO) as well as in water by visually determining each macrocycle's solubility. Our analysis began with the proteinogenic peptides 8 and 9 (Figure 6a). From the NMR studies, we recognized that these peptides had extremely poor solubility in d6 ‐DMSO (Figure 6c). […] HPLC analysis of these peptides confirmed that proteinogenic sequences correspond to extremely polar peptides. On a 15‐min HPLC gradient (from 5% MeCN/H2O to 95% MeCN/H2O with 0.1% formic acid), macrocycles 8 and 9 had HPLC retention times of 5.3 min and 4.8 min, respectively. Both 8 and 9 contain similar hydrogen bonding patterns, which is reflected in their similar hydrophilicities and HPLC retention times. Similar results were obtained with peptides 10 and 11 (Figure 6a). […] We were keen to decipher whether the inclusion of either “open” or “closed” pseudo‐ring residues could lead to noticeable solubility and lipophilicity differences. […] This increase in […] likely results from the now exposed polar phenolic OH group paired with the disrupted IMHB networks that were present within the backbone of 4. […] With this in mind, we began analyzing our dicarbonyl‐containing macrocycles 6 and 7. […] Similarly, this marks the first instance in which we have been able to access a class of macrocycles with chameleonic behavior whereby we can reliably access both “open” and “closed” forms using pseudo‐rings. […] Unique to this series of macrocycles, the “open” pseudo‐ring macrocycle 7 is extremely hydrophilic.

[3] = Solubility in water, determined visually; conditions: concentration of 10 mg/mL
Excerpt: We considered building blocks 1–3 as Fmoc‐protected pseudo‐ring building blocks that could be implemented into the Fmoc SPPS approach. The building block 1 was readily prepared from 3‐methyl SA (see Supporting Information). […] The building block 3 was made from commercially available 7‐carboxyindole over seven steps. This procedure was scalable and required no chromatographic purifications (see Supporting Information). With 1 and 3 in hand, we turned our attention towards their application in SPPS. […] Through cyclization of the linear pentafluorophenol (PFP) ester at high dilution in DMF with DIPEA, cyclic peptides 4 (25% overall yield) and 5 (28% overall yield) were obtained from building block 1. The cyclic peptides 6 (17% overall yield) and 7 (21% overall yield) were prepared from building block 3 (Figure 3a,b). At the same time, we synthesized cyclic peptide controls devoid of the pseudo‐ring core through a conventional Fmoc SPPS strategy (Figure 3c) with a Gly‐Gly in place of the pseudo‐ring scaffold. Similarly, we prepared peptides 10 and 11, which represent depeptidized homodetic sequences that contain a backbone‐embedded arene that lacks the X─H pseudo‐ring hydrogen bond donor (Figure 3c). […]

## CC[C@H](C)[C@@H]1NC(=O)c2cccc(c2O)CNC(=O)[C@H](Cc2ccccc2)NC(=O)CNC(=O)[C@H](C)NC1=O [compound 4] (HELM PEPTIDE1{A.G.F.[O=C(c1cccc(CN[*:1])c1O)[*:2]].I}$PEPTIDE1,PEPTIDE1,1:R1-5:R2$$$V2.0)
[1]
  HPLC retention time: 7.7 min
[2]
  Solubility in DMSO (d6-DMSO): readily soluble; also recorded: much more soluble in DMSO than their non‐pseudo‐ring counterparts

## C[C@@H]1NC(=O)[C@@H]2CCCN2C(=O)c2cccc(c2O)CNC(=O)[C@H](Cc2ccccc2)NC(=O)CNC1=O [compound 5] (HELM PEPTIDE1{A.G.F.[O=C(c1cccc(CN[*:1])c1O)[*:2]].P}$PEPTIDE1,PEPTIDE1,1:R1-5:R2$$$V2.0)
[2]
  Solubility in DMSO (d6-DMSO): readily soluble; also recorded: much more soluble in DMSO than their non‐pseudo‐ring counterparts

## CC[C@H](C)[C@@H]1NC(=O)c2cccc(c2N)C(=O)CNC(=O)[C@H](Cc2ccccc2)NC(=O)CNC(=O)[C@H](C)NC1=O [compound 6] (HELM PEPTIDE1{A.G.F.[Nc1c(C(=O)CN[*:1])cccc1C(=O)[*:2]].I}$PEPTIDE1,PEPTIDE1,1:R1-5:R2$$$V2.0)
[2]
  Solubility in DMSO (d6-DMSO): highly soluble

## C[C@@H]1NC(=O)[C@@H]2CCCN2C(=O)c2cccc(c2N)C(=O)CNC(=O)[C@H](Cc2ccccc2)NC(=O)CNC1=O [compound 7] (HELM PEPTIDE1{A.G.F.[Nc1c(C(=O)CN[*:1])cccc1C(=O)[*:2]].P}$PEPTIDE1,PEPTIDE1,1:R1-5:R2$$$V2.0)
[2]
  Solubility in DMSO (d6-DMSO): highly soluble
[3]
  Solubility in H2O: highly soluble

## CC[C@H](C)[C@@H]1NC(=O)CNC(=O)CNC(=O)[C@H](Cc2ccccc2)NC(=O)CNC(=O)[C@H](C)NC1=O [compound 8] (HELM PEPTIDE1{A.G.F.G.G.I}$PEPTIDE1,PEPTIDE1,1:R1-6:R2$$$V2.0)
[1]
  HPLC retention time: 5.3 min
[2]
  Solubility in DMSO (d6-DMSO): could not be fully solubilized

## C[C@@H]1NC(=O)[C@@H]2CCCN2C(=O)CNC(=O)CNC(=O)[C@H](Cc2ccccc2)NC(=O)CNC1=O [compound 9] (HELM PEPTIDE1{A.G.F.G.G.P}$PEPTIDE1,PEPTIDE1,1:R1-6:R2$$$V2.0)
[2]
  Solubility in DMSO (d6-DMSO): could not be fully solubilized

## CC[C@H](C)[C@@H]1NC(=O)c2cccc(c2)CNC(=O)[C@H](Cc2ccccc2)NC(=O)CNC(=O)[C@H](C)NC1=O [compound 10] (HELM PEPTIDE1{[O=C(c1cccc(CN[*:1])c1)[*:2]].I.A.G.F}$PEPTIDE1,PEPTIDE1,1:R1-5:R2$$$V2.0)
[2]
  Solubility in DMSO (d6-DMSO): poorly soluble

## C[C@@H]1NC(=O)[C@@H]2CCCN2C(=O)c2cccc(c2)CNC(=O)[C@H](Cc2ccccc2)NC(=O)CNC1=O [compound 11] (HELM PEPTIDE1{[O=C(c1cccc(CN[*:1])c1)[*:2]].P.A.G.F}$PEPTIDE1,PEPTIDE1,1:R1-5:R2$$$V2.0)
[2]
  Solubility in DMSO (d6-DMSO): could be solubilized in d6 ‐DMSO at room temperature only after sonication
